Experimental data from patent US8658646B2, “Pyrrolopyrazine kinase inhibitors” (Hoffmann-LaRoche Inc., priority 2011, dated 2014).

Target: T1, JAK3: Recombinant human kinase domain (Homo sapiens, UniProt P52333)
T1 construct: JAK3: Recombinant human kinase domain from Millipore (Cat #14-629) or prepared; purchased Millipore 14-629
Experiment: Determination of IC50 of Janus Kinase (JAK) inhibition, radioactive end-point 33P-ATP assay, JAK3
Type: biochemical
Settings: ATP 1.5 uM, peptide 50 uM, 20 minutes, read-out: JAK3-INHIB-DR/v1~NO ADDITIVE~Enzyme_Conc = 100

T1 sequence (P52333 822-1111 limits assumed): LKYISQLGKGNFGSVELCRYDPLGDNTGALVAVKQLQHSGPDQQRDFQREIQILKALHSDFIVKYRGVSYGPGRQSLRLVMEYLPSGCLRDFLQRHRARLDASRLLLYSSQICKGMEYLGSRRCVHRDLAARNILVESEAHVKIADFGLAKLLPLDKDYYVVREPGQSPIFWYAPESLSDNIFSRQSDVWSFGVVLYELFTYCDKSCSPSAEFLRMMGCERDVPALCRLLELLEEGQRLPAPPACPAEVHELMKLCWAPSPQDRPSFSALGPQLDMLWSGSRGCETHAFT

| Compound | IC50 [nM] |
| --- | --- |
| C[C@H](CN1CC(C#N)C1)NC(=O)c1c[nH]c2ncc(-c3nn(C)c4cc(Cl)ccc34)nc12 [Example I-126, 2-(6-Chloro-1-methyl-1H-indazol-3-yl)-5H-pyrrolo[2,3-b]pyrazine-7-carboxylic acid [(R)-2-(3-cyano-azetidin-1-yl)-1-methyl-ethyl]-amide] | 18.3 |
| CC1CCCCC1NC(=O)c1c[nH]c2ncc(-c3nn(C)c4cc(Cl)ccc34)nc12 (stereo not drawn) [Example I-153, 2-(6-Chloro-1-methyl-1H-indazol-3-yl)-5H-pyrrolo[2,3-b]pyrazine-7-carboxylic acid (2-methyl-cyclohexyl)-amide] | 4.02 |
| N#CC1CCN(C(=O)[C@H](NC(=O)c2c[nH]c3ncc(-n4ncc5cc(Cl)c(Cl)cc54)nc23)C2CC2)CC1 [Example I-68, 2-(5,6-Dichloro-indazol-1-yl)-5H-pyrrolo[2,3-b]pyrazine-7-carboxylic acid [(R)-2-(4-cyano-piperidin-1-yl)-1-cyclopropyl-2-oxo-ethyl]-amide] | 5.75 |
| Cn1nc(-c2cnc3[nH]cc(C(=O)NC(C)(C)CO)c3n2)c2ccc(F)cc21 [Example I-363, 2-(6-Fluoro-1-methyl-1H-indazol-3-yl)-5H-pyrrolo[2,3-b]pyrazine-7-carboxylic acid (2-hydroxy-1,1-dimethyl-ethyl)-amide] | > 1000 |
| C[C@H](CS(C)(=O)=O)NC(=O)c1c[nH]c2ncc(-c3nn(C)c4cc(Cl)ccc34)nc12 [Example I-105, 2-(6-Chloro-1-methyl-1H-indazol-3-yl)-5H-pyrrolo[2,3-b]pyrazine-7-carboxylic acid ((R)-2-methanesulfonyl-1-methyl-ethyl)-amide] | 54.4 |
| CCNC(=O)c1c[nH]c2ncc(-c3nn(C)c4cc(Cl)ccc34)nc12 [Example I-109, 2-(6-Chloro-1-methyl-1H-indazol-3-yl)-5H-pyrrolo[2,3-b]pyrazine-7-carboxylic acid ethylamide] | 44.3 |
| C[C@@H](NC(=O)c1c[nH]c2ncc(-c3nn(C)c4c3CCCC4)nc12)C(=O)N1CC(C#N)C1 [Example I-26, 2-(1-Methyl-4,5,6,7-tetrahydro-1H-indazol-3-yl)-5H-pyrrolo[2,3-b]pyrazine-7-carboxylic acid [(R)-2-(3-cyano-azetidin-1-yl)-1-methyl-2-oxo-ethyl]-amide] | 5.7 |

These reach a lower IC50. Values come first.

| IC50 [nM] | Compound |
| --- | --- |
| 1.51 | Cn1nc(-c2cnc3[nH]cc(C(=O)N[C@@H](C(=O)N4CCC(C#N)CC4)C4CC4)c3n2)c2c1CCCC2 [Example I-10, 2-(1-Methyl-4,5,6,7-tetrahydro-1H-indazol-3-yl)-5H-pyrrolo[2,3-b]pyrazine-7-carboxylic acid [(R)-2-(4-cyano-piperidin-1-yl)-1-cyclopropyl-2-oxo-ethyl]-amide] |
| 1.45 | C[C@@H](NC(=O)c1c[nH]c2ncc(-c3nn(C)c4cc(Cl)c(F)cc34)nc12)C(=O)N1CC(C#N)C1 [Example I-30, 2-(6-Chloro-5-fluoro-1-methyl-1H-indazol-3-yl)-5H-pyrrolo[2,3-b]pyrazine-7-carboxylic acid [(R)-2-(3-cyano-azetidin-1-yl)-1-methyl-2-oxo-ethyl]-amide] |
| 1.15 | COCC(C)NC(=O)c1c[nH]c2ncc(-c3nn(C)c4cc(Cl)ccc34)nc12 (stereo not drawn) [Example I-152, 2-(6-Chloro-1-methyl-1H-indazol-3-yl)-5H-pyrrolo[2,3-b]pyrazine-7-carboxylic acid (2-methoxy-1-methyl-ethyl)-amide] |
| 0.85 | C[C@@H](NC(=O)c1c[nH]c2ncc(-c3nn(C)c4ccsc34)nc12)C(=O)N1CC(C#N)C1 [Example I-99, 2-(1-Methyl-1H-thieno[3,2-c]pyrazol-3-yl)-5H-pyrrolo[2,3-b]pyrazine-7-carboxylic acid [(R)-2-(3-cyano-azetidin-1-yl)-1-methyl-2-oxo-ethyl]-amide] |
| 0.815 | COC[C@H](C)NC(=O)c1c[nH]c2ncc(-c3nn(CCN4CCOCC4)c4cc(F)ccc34)nc12 [Example I-238, 2-[6-Fluoro-1-(2-morpholin-4-yl-ethyl)-1H-indazol-3-yl]-5H-pyrrolo[2,3-b]pyrazine-7-carboxylic acid ((S)-2-methoxy-1-methyl-ethyl)-amide] |
